We go through two molecules from patent US12325867B2, “Organoid produced using carrier for cell culture, and method for evaluating drug toxicity using same” (Korea Research Institute of Chemical Technology, priority 2018, dated 2025).

Molecules are shown by their SMILES.

This data set concerns artificial myocardial structure (cardiac organoid). In words: contractile force-based cardiac toxicity assessment using the artificial myocardial structure. The data set is classed as cell-based, human. The text has this: Furthermore, after additionally treating an artificial myocardial structure prepared by coculturing gelatin oil capsules and cardiomyocytes with various drugs, contractile forces of the drug-treated artificial myocardial structure were checked.

In the case of `CC(C)NCC(O)c1ccc(O)c(O)c1` (stereo not drawn) [Isopreterenol], for the setting “group treated with 10 nM”, the beat rates result is “accelerated” and the contractile forces entry is “changed strongly”. `COc1ccc(CCN(C)CCCC(C#N)(c2ccc(OC)c(OC)c2)C(C)C)cc1OC` (stereo not drawn) [verapamil]: the beat rates entry (group treated with 125 nM) is “slow down and become somewhat irregular”.
